The subject of this experiment is solid tumors. Briefly: Phase I pharmacological trial, iv single administration every three weeks. Format: in vivo, patients. To be noted: one patient suffering from gastrointestinal sarcoma, dose level 5.1 mg/m^2, iv infusion. How it is done: A phase I pharmacological trial was carried out to investigate the iv administration of the title compound given as a single administration every three weeks to patients with solid tumors.
The starting dose of 0.85 mg/m^2 was initially escalated in an accelerated design (100% dose increase, 1 patient/dose level) and then by a conventional dose escalation in 3-6 patient cohorts. 11 patients have been entered so far and 25 cycles have been evaluated for toxicity at dose levels of 0.85, 1.7, 3.4, 5.1 and 7.5 mg/m^2.

As for `C=C(Br)C(=O)Nc1cc(C(=O)Nc2cc(C(=O)Nc3cc(C(=O)Nc4cc(C(=O)NCCNC(=N)N)n(C)c4)n(C)c3)n(C)c2)n(C)c1.Cl` [PNU 166196, N-(5-{[(5-{[(5-{[(2-{[amino(imino)methyl]amino}ethyl)amino]carbonyl}-1-methyl-1H-pyrrol-3-yl)amino]carbonyl}-1-methyl-1H-pyrrol-3-yl)amino]carbonyl}-1-methyl-1H-pyrrol-3-yl)-4-[(2-bromoacryloyl)amino]-1-methyl-1H-pyrrole-2-carboxamide hydrochloride], the tumor response result is listed as “partial response”.

The values are drawn from US6576612B1, “Antitumor therapy comprising distamycin derivatives” (Pharmacia Italia S.p.A., priority 2000, dated 2003).
